Results from ChEMBL document CHEMBL1201862, “PubChem BioAssay data set” (2004).
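Briefly, cells in 96-well plates were exposed to five compound concentrations for 48 h, and endpoints were estimated by linear interpolation. Abbreviation: GI50, concentration required for 50% inhibition of growth.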 Calls of active or inactive are those of the source. No stated cut-off is given here; in the data, active = GI50 up to about 1.1 µM and inactive = higher.

Legend:
Assay in all cases: NCI anticancer screen, dose series, 48 h
EKVX = test system: EKVX
CAKI-1 = test system: CAKI-1
786-0 = test system: 786-0
ACHN = test system: ACHN
M14 = test system: M14
UO-31 = test system: UO-31
U-251 = test system: U-251
NCI/ADR-RES = test system: NCI/ADR-RES
UACC-62 = test system: UACC-62
SK-MEL-28 = test system: SK-MEL-28
IGROV-1 = test system: IGROV-1
OVCAR-4 = test system: OVCAR-4
RXF 393 = test system: RXF 393
TK-10 = test system: TK-10
A498 = test system: A498
HCC 2998 = test system: HCC 2998
COLO 205 = test system: COLO 205
MDA-MB-435 = test system: MDA-MB-435
HOP-62 = test system: HOP-62

Measured: GI50

COc1cccc(-c2nnc3c(-c4ccccc4)nc4ccccc4n23)c1
inactive: EKVX 55.2 µM | CAKI-1 33.6 µM | 786-0 49.1 µM | ACHN > 62.2 µM | M14 29.5 µM | UO-31 10.5 µM | U-251 21.8 µM | NCI/ADR-RES 14.4 µM | UACC-62 75.7 µM | SK-MEL-28 > 77.4 µM | IGROV-1 21.6 µM | OVCAR-4 9.86 µM | RXF 393 8.38 µM | TK-10 36.3 µM | A498 6.58 µM | HCC 2998 8.49 µM | COLO 205 8.57 µM | MDA-MB-435 2.91 µM | HOP-62 58.1 µM

CC(C)(C)OC(=O)NCCCNC1(c2cc3ccccc3s2)CCCCC1
inactive: EKVX 14 µM | CAKI-1 13.6 µM | 786-0 14.9 µM | ACHN 19.2 µM | M14 12 µM | UO-31 12.6 µM | U-251 21.3 µM | NCI/ADR-RES 15.2 µM | UACC-62 17.4 µM | SK-MEL-28 14.9 µM | IGROV-1 16.7 µM | OVCAR-4 15.2 µM | RXF 393 14.8 µM | TK-10 16.6 µM | A498 15.6 µM | HCC 2998 3.56 µM | COLO 205 12.3 µM | MDA-MB-435 14.7 µM | HOP-62 14.4 µM

CCCN(CCC)C(=O)c1c(Cl)c2cccnc2n2c(C)cnc12
inactive: EKVX > 100 µM | CAKI-1 22.9 µM | 786-0 > 100 µM | ACHN > 100 µM | M14 61.2 µM | UO-31 38.8 µM | NCI/ADR-RES 50.4 µM | UACC-62 52.7 µM | SK-MEL-28 > 100 µM | IGROV-1 64.4 µM | OVCAR-4 > 100 µM | RXF 393 35 µM | TK-10 > 100 µM | A498 69.5 µM | HCC 2998 97.9 µM | COLO 205 49.5 µM | MDA-MB-435 27.2 µM | HOP-62 > 100 µM

CC(=O)N1CCc2c([nH]c3ccc(Br)cc23)C1c1ccccc1 (centres undefined)
inactive: EKVX > 10 µM | CAKI-1 > 9.53 µM | 786-0 3.28 µM | ACHN > 7.36 µM | M14 > 10 µM | UO-31 > 10 µM | U-251 3.69 µM | NCI/ADR-RES 4.16 µM | UACC-62 > 7.13 µM | SK-MEL-28 > 10 µM | IGROV-1 > 7.33 µM | OVCAR-4 > 10 µM | RXF 393 > 10 µM | TK-10 > 10 µM | A498 > 10 µM | HCC 2998 9.95 µM | COLO 205 > 10 µM | MDA-MB-435 2.69 µM | HOP-62 7.55 µM

CCN(CC)Cc1cc(Nc2c3ccccc3nc3c4ccccc4n(C)c23)cc(CN(CC)CC)c1O
inactive: EKVX 4.59 µM | CAKI-1 13.5 µM | 786-0 3.48 µM | ACHN 5.43 µM | M14 1.76 µM | UO-31 2.12 µM | U-251 5.27 µM | NCI/ADR-RES 2.91 µM | UACC-62 2.81 µM | SK-MEL-28 2.37 µM | IGROV-1 9.98 µM | OVCAR-4 4.43 µM | RXF 393 3.16 µM | TK-10 10.9 µM | A498 6.07 µM | HCC 2998 5.11 µM | COLO 205 2.77 µM | MDA-MB-435 3.01 µM | HOP-62 4.4 µM

Oc1ccc(SCc2cc(O)c(O)c(O)c2)cc1
inactive: EKVX > 100 µM | CAKI-1 39.6 µM | 786-0 37 µM | ACHN 47.9 µM | M14 17.9 µM | UO-31 24.8 µM | U-251 37.1 µM | NCI/ADR-RES 19.7 µM | UACC-62 16.9 µM | SK-MEL-28 92.9 µM | IGROV-1 20.5 µM | RXF 393 89.3 µM | TK-10 > 100 µM | A498 40.5 µM | HCC 2998 > 10 µM | COLO 205 18.7 µM | MDA-MB-435 22.4 µM | HOP-62 29 µM

COc1cc(Nc2c(C#N)[n+]([O-])c3ccccc3[n+]2[O-])cc(OC)c1OC
inactive: EKVX 29 µM | CAKI-1 38.1 µM | 786-0 20 µM | ACHN 56.8 µM | M14 15 µM | UO-31 > 100 µM | U-251 38 µM | NCI/ADR-RES 17.3 µM | SK-MEL-28 19 µM | OVCAR-4 > 100 µM | RXF 393 33.8 µM | TK-10 > 100 µM | A498 48.3 µM | HCC 2998 18.4 µM | COLO 205 12.6 µM | MDA-MB-435 37.4 µM | HOP-62 29 µM
